Measured values as given in publication PMC12226405 (Aging Medicine, 2025).

What was measured:
[1] = tested on: lumbar spine (L2–L4) BMD; set-up: method as in PMID 31243480; settings: study of biosimilar approved in Japan; cited from earlier work
[2] = tested on: lumbar spine BMD; set-up: method as in PMID 11346808; settings: Fracture Prevention Trial; after 2 years of 20 μg daily; cited from earlier work
[3] = tested on: femoral neck BMD; set-up: method as in PMID 11346808; settings: Fracture Prevention Trial; after 2 years of 20 μg daily; cited from earlier work
[4] = set-up: method as in PMID 31243480; settings: Fracture Prevention Trial; 20 μg; cited from earlier work
[5] = tested on: serum P1NP (procollagen type 1 N terminal propeptide); experiment: Change from baseline in serum P1NP (bone turnover marker); type: in vivo, human; settings: mITT population; 20 μg s.c. once daily
Description: (§1) All participants were provided with daily oral supplementation of 1000 mg of calcium and 500 IU of vitamin D3.
(§2) The primary endpoint of the study was the percent change in BMD of the lumbar spine and proximal femur, assessed using dual‐energy X‐ray absorptiometry (DXA) from baseline to Weeks 24 and 48. All DXA measurements were analyzed centrally, and the results were not disclosed to individual study centers to ensure unbiased interpretation. Secondary endpoints included the change from baseline in the pharmacodynamic parameter serum P1NP (procollagen type 1 N terminal propeptide), which was assessed at randomization and Weeks 12, 24, and 48. […] Serum biochemistry analyses were performed at baseline and at Weeks 4, 12, 24, and 48.
(§3) The efficacy analysis was performed on all the subjects in mITT (modified intention‐to‐treat) and PP (per protocol) population. Any missing postbaseline data were imputed using the last observation carried forward (LOCF) procedure. For the analysis of change from baseline to Week 12 (for P1NP), Week 24, and Week 48, a regression model with percent change from baseline as the response variable and the stratification variable was used for randomization, and treatment as independent variables was fit to test the mean difference between the two treatments in percent change. Adjusted least square mean (LSM) and the standard error values along with the p value and the 95% confidence interval (CI) of the difference were presented.

[6] = Pharmacokinetic sub-study, plasma teriparatide on Day 1; type: in vivo, human; settings: Day 1, 20 μg s.c., sampling to 240 min, noncompartmental, n = 15 per arm
Description: Pharmacokinetic (PK) assessments were performed on a subset of subjects who voluntarily consented to participate in an additional PK sub‐study alongside the main study. […] Blood samples for PK analysis were collected at the study site on Day 1 (Visit 2, i.e., the randomization visit) at specified time points: pre‐dose (within 30 min before the first investigational product [IP] administration) and at 5‐, 10‐, 20‐, 30‐, 45‐, 60‐, 90‐, 120‐, 180‐, and 240‐min post‐IP administration.
PK parameters (C max, AUC0–t , and T max) measured in plasma were calculated by noncompartmental methods, using Phoenix software for the PK population on Day 1. Descriptive statistics (number of subjects [n], mean, standard deviation, median, minimum, and maximum [range]) were calculated for all evaluable PK parameters by treatment group for the PK population.

[7] = tested on: lumbar spine BMD in postmenopausal women with osteoporosis; experiment: Percent change in lumbar spine BMD by DXA, phase III study; type: in vivo, human; settings: for Percent change in lumbar spine BMD from baseline at Week 24, LSM ± SE / Percent change in lumbar spine BMD from baseline at Week 48, LSM ± SE: mITT population, LOCF, 20 μg s.c. once daily, DXA
Description: (§4) A multicenter, randomized, active‐controlled, double‐blind, parallel‐group phase III study was conducted between August 2018 and August 2020 at 17 sites in India. The study was conducted as per the principles and requirements of the Declaration of Helsinki (2013), and ICH‐GCP (E6‐R2, Step 4) guidelines along with the local regulatory requirements of Good Clinical Practices for Clinical Research in India (2004), ICMR guidelines for Biomedical Research on Human Subjects (2017) and New Drugs and Clinical Trial Rules, 2019 (CDSCO) and after approvals from respective Institutional Ethics Committees. The study was registered on the Clinical Trial Registry of India (CTRI/2018/05/014254).
(§5) After signing of the informed consent form, the subjects were screened to assess eligibility according to the study selection criteria. Postmenopausal women between the ages of 50–80 years with BMD T‐SCORE less than −2.5 at the lumbar spine or femoral neck were enrolled in the study.
as §1
(§6) Medications known to affect bone metabolism, such as bisphosphonates, raloxifene, and denosumab, as well as drugs associated with reduced bone density, including glucocorticoids, aromatase inhibitors, and tamoxifen, were prohibited during the study. Throughout the treatment period, data were collected for primary and secondary endpoints. BMD was evaluated using dual‐energy X‐ray absorptiometry (DXA) as part of the efficacy assessments. Laboratory samples were collected during the treatment phase to support efficacy and safety evaluations, and all laboratory analyses were conducted at a central laboratory.
as §2, §3

[8] = tested on: femoral neck BMD in postmenopausal women with osteoporosis; experiment: Percent change in femoral neck BMD by DXA, phase III study; type: in vivo, human; settings: for percent change in femoral neck BMD from baseline to 48 weeks (LSM ± SE): as given in the abstract, population not given; for percent change in femoral neck BMD from baseline to 48 weeks (LSM ± SE) / Percent change in femoral neck BMD from baseline at Week 24, LSM ± SE / Percent change in femoral neck BMD from baseline at Week 48, LSM ± SE: 20 μg s.c. once daily; for Percent change in femoral neck BMD from baseline at Week 24, LSM ± SE / Percent change in femoral neck BMD from baseline at Week 48, LSM ± SE: mITT population, LOCF, DXA
Description: as §4, §5, §1, §6, §2, §3

[9] = listed as Proposed biosimilar teriparatide (T)
[10] = biosimilar versus reference teriparatide, mITT
[11] = versus reference teriparatide, Week 24 and Week 48, mITT
[12] = listed as Reference teriparatide (R)

Substance | percent change from baseline to 52 weeks in lumbar spine (L2–L4) BMD (mean ± SE) [1] | Serum P1NP concentration, change from baseline to Week 12 (LSM ± SE) [5] | Serum P1NP concentration, change from baseline to Week 24 (LSM ± SE) [5] | Serum P1NP concentration, change from baseline to Week 48 (LSM ± SE) [5] | Percent change in lumbar spine BMD from baseline at Week 24, LSM ± SE [7] | Percent change in lumbar spine BMD from baseline at Week 48, LSM ± SE [7] | percent change in femoral neck BMD from baseline to 48 weeks (LSM ± SE) [8] | Percent change in femoral neck BMD from baseline at Week 24, LSM ± SE [8] | Percent change in femoral neck BMD from baseline at Week 48, LSM ± SE [8] | further results
RGB‐10: proposed biosimilar teriparatide approved in Japan | 8.94% ± 6.19% |  |  |  |  |  |  |  |  | 
teriparatide |  |  |  |  |  |  |  |  |  | percentage increase in BMD at the lumbar spine (mean ± SE) [2]: 9.7 ± 7.4%; percentage increase in BMD at the femoral neck (mean ± SE) [3]: 2.8 ± 5.7%; TEAE dizziness [4]: 9%; TEAE leg cramps [4]: 3%
teriparatide [Biosimilar teriparatide] |  | 24.38 ± 4.44 | 33.05 ± 7.00 | 48.52 ± 7.24 | 7.16 ± 0.82% | 8.46 ± 0.94% | 3.94% ± 0.83 | 3.37 ± 0.78% | 4.03 ± 0.96 (p = 0.003) % | AUC(0–t), geometric least squares mean [6, 9]: 6132.45 min; C max, geometric least squares mean [6, 9]: 0.10879 ng/mL; estimated between-group difference (95% CI), lumbar spine BMD percent change to 48 weeks ([7]; abstract, biosimilar versus reference, noninferiority margin −2.43%): −0.56%; LSM difference (95% CI), lumbar spine BMD percent change at Week 24 [7, 10]: −0.410 (−3.191, 2.372); LSM difference (95% CI), lumbar spine BMD percent change at Week 48 [7, 10]: −0.754 (−4.011, 2.502); noninferiority in lumbar spine BMD percentage change [7, 11]: noninferiority; estimated between-group difference (95% CI), femoral neck BMD percent change to 48 weeks ([8]; abstract, biosimilar versus reference, noninferiority margin −1.44%): 1.44%; LSM difference (95% CI), femoral neck BMD percent change at Week 24 [8, 10]: 1.576 (−1.048, 4.199); LSM difference (95% CI), femoral neck BMD percent change at Week 48 [8, 10]: 0.173 (−3.146, 3.493); noninferiority in femoral neck BMD percentage change [8, 11]: noninferiority
teriparatide [Reference teriparatide, reference compound] | 9.65% ± 6.22% | 21.95 ± 6.02 | 51.07 ± 9.63 | 34.30 ± 9.98 | 7.57 ± 1.13% | 9.22 ± 1.34% | 2.50% ± 1.20 | 1.79 ± 1.07% | 3.86 ± 1.24 (p = 0.024) % | AUC(0–t), geometric least squares mean [6, 12]: 6387.59 min; C max, geometric least squares mean [6, 12]: 0.10589 ng/mL
